Numbers after ± are expanded uncertainties.
Experiment: xn = mol fraction of the nth substance listed
Conditions: Liquid

CCCCO [butan-1-ol] + O=C=O
Conditions	mass density [kg/m3]
323.07 K, 16977 kPa, x2 = 0.0857	807.17 ± 0.59
323.07 K, 18030 kPa, x2 = 0.0857	808.01 ± 0.6
323.07 K, 18995 kPa, x2 = 0.0857	808.74 ± 0.61
323.07 K, 19987 kPa, x2 = 0.0857	809.54 ± 0.61
323.07 K, 21040 kPa, x2 = 0.0857	810.38 ± 0.62
323.07 K, 21992 kPa, x2 = 0.0857	811.09 ± 0.63
323.07 K, 23011 kPa, x2 = 0.0857	811.87 ± 0.64
323.07 K, 24000 kPa, x2 = 0.0857	812.6 ± 0.65
323.07 K, 25007 kPa, x2 = 0.0857	813.42 ± 0.66
323.1 K, 10109 kPa, x2 = 0.4972	818.96 ± 0.52
323.1 K, 11078 kPa, x2 = 0.4972	820.55 ± 0.52
323.1 K, 11078 kPa, x2 = 0.5965	822.9 ± 0.55
323.1 K, 12051 kPa, x2 = 0.4972	822.08 ± 0.53
323.1 K, 12072 kPa, x2 = 0.5965	825.03 ± 0.53
323.1 K, 12077 kPa, x2 = 0.8663	777.48 ± 1.1
323.1 K, 13046 kPa, x2 = 0.8663	787.33 ± 0.7
323.1 K, 13049 kPa, x2 = 0.4972	823.64 ± 0.53
323.1 K, 13059 kPa, x2 = 0.5965	827.1 ± 0.54
323.1 K, 14029 kPa, x2 = 0.8663	796.15 ± 0.64
323.1 K, 14053 kPa, x2 = 0.4972	825.18 ± 0.54
323.1 K, 14067 kPa, x2 = 0.5965	829.16 ± 0.54
323.1 K, 15041 kPa, x2 = 0.4972	826.62 ± 0.55
323.1 K, 15050 kPa, x2 = 0.8663	804.37 ± 0.63
323.1 K, 15063 kPa, x2 = 0.5965	831.15 ± 0.55
323.1 K, 16046 kPa, x2 = 0.5965	833.04 ± 0.55
323.1 K, 16058 kPa, x2 = 0.4972	828.14 ± 0.55
323.1 K, 16077 kPa, x2 = 0.8663	811.86 ± 0.62
323.1 K, 17030 kPa, x2 = 0.5965	834.9 ± 0.56
323.1 K, 17044 kPa, x2 = 0.8663	818.37 ± 0.62
323.1 K, 17051 kPa, x2 = 0.4972	829.54 ± 0.56
323.1 K, 18024 kPa, x2 = 0.8663	824.54 ± 0.61
323.1 K, 18049 kPa, x2 = 0.5965	836.78 ± 0.56
323.1 K, 18061 kPa, x2 = 0.4972	830.96 ± 0.57
323.1 K, 19022 kPa, x2 = 0.4972	832.33 ± 0.57
323.1 K, 19033 kPa, x2 = 0.8663	830.52 ± 0.61
323.1 K, 19044 kPa, x2 = 0.5965	838.57 ± 0.57
323.1 K, 20021 kPa, x2 = 0.4972	833.69 ± 0.58
323.1 K, 20028 kPa, x2 = 0.8663	835.95 ± 0.61
323.1 K, 20039 kPa, x2 = 0.5965	840.32 ± 0.57
323.1 K, 21026 kPa, x2 = 0.8663	841.13 ± 0.6
323.1 K, 21047 kPa, x2 = 0.4972	835.06 ± 0.59
323.1 K, 21064 kPa, x2 = 0.5965	842.09 ± 0.58
323.1 K, 22036 kPa, x2 = 0.4972	836.36 ± 0.59
323.1 K, 22041 kPa, x2 = 0.5965	843.75 ± 0.58
323.1 K, 22054 kPa, x2 = 0.8663	846.3 ± 0.6
323.1 K, 23023 kPa, x2 = 0.5965	845.38 ± 0.59
323.1 K, 23023 kPa, x2 = 0.8663	850.85 ± 0.6
323.1 K, 23045 kPa, x2 = 0.4972	837.69 ± 0.6
323.1 K, 23996 kPa, x2 = 0.4972	838.91 ± 0.6
323.1 K, 24006 kPa, x2 = 0.8663	855.33 ± 0.6
323.1 K, 24008 kPa, x2 = 0.5965	847 ± 0.59
323.1 K, 25012 kPa, x2 = 0.4972	840.21 ± 0.61
323.1 K, 25040 kPa, x2 = 0.5965	848.65 ± 0.6
323.1 K, 25041 kPa, x2 = 0.8663	859.75 ± 0.62
332.94 K, 1010 kPa, x2 = 0.0251	781.57 ± 0.46
332.94 K, 2077 kPa, x2 = 0.0251	782.55 ± 0.47
332.94 K, 3046 kPa, x2 = 0.0251	783.47 ± 0.48
332.94 K, 3990 kPa, x2 = 0.0251	784.3 ± 0.49
332.94 K, 5002 kPa, x2 = 0.0251	785.22 ± 0.5
332.94 K, 6026 kPa, x2 = 0.0251	786.15 ± 0.5
332.94 K, 6975 kPa, x2 = 0.0251	786.98 ± 0.51
332.94 K, 8009 kPa, x2 = 0.0251	787.91 ± 0.52
332.94 K, 9084 kPa, x2 = 0.0251	788.83 ± 0.53
332.94 K, 9985 kPa, x2 = 0.0251	789.62 ± 0.54
332.94 K, 11024 kPa, x2 = 0.0251	790.52 ± 0.55
332.94 K, 12040 kPa, x2 = 0.0251	791.34 ± 0.56
332.94 K, 12968 kPa, x2 = 0.0251	792.12 ± 0.57
332.94 K, 12999 kPa, x2 = 0.9698	600.03 ± 1.2
332.94 K, 13994 kPa, x2 = 0.0251	792.95 ± 0.58
332.94 K, 14036 kPa, x2 = 0.9698	638.84 ± 1.1
332.94 K, 15021 kPa, x2 = 0.9698	667.05 ± 0.98
332.94 K, 15041 kPa, x2 = 0.0251	793.85 ± 0.59
332.94 K, 16014 kPa, x2 = 0.9698	689.92 ± 0.93
332.94 K, 16061 kPa, x2 = 0.0251	794.54 ± 0.6
332.94 K, 17001 kPa, x2 = 0.0251	795.37 ± 0.61
332.94 K, 17022 kPa, x2 = 0.9698	709.37 ± 0.88
332.94 K, 18009 kPa, x2 = 0.9698	725.81 ± 0.85
332.94 K, 18031 kPa, x2 = 0.0251	796.18 ± 0.62
332.94 K, 19010 kPa, x2 = 0.9698	740.47 ± 0.82
332.94 K, 19042 kPa, x2 = 0.0251	796.95 ± 0.63
332.94 K, 20027 kPa, x2 = 0.0251	797.73 ± 0.63
332.94 K, 20028 kPa, x2 = 0.9698	753.7 ± 0.8
332.94 K, 20987 kPa, x2 = 0.0251	798.46 ± 0.64

Reference: the NIST ThermoML archive (doi:10.1021/je700261b)
